{"source": "patent US11173146B2", "about": "“Selective activators of the intermediate conductance CA2+activated K+ channel KCa3.1 and their methods of use” (The Regents of the University of California, priority 2014, dated 2021)", "key": {"[1]": {"details": "rats; literature; cited from earlier work"}, "dogs": {"tested_on": "dogs", "details": "intravenous 2 mg/kg, literature; cited from earlier work"}, "mice": {"tested_on": "mice", "details": "literature, cited from earlier work"}, "[2]": {"assay": "Solubility for electrophysiology testing", "format": "physicochemical"}, "KCa3.1": {"molecular_target": "KCa3.1 (Homo sapiens, UniProt O15554+P0DP23)", "details": "literature; cited from earlier work"}, "KCa2 channels": {"tested_on": "KCa2 channels", "details": "literature; cited from earlier work"}, "KV11.1 (hERG)": {"molecular_target": "T1, KV11.1 (hERG) (Homo sapiens, UniProt Q12809)", "T1 construct": "host or cells: HEK-293", "T1 sequence (Q12809 whole entry)": "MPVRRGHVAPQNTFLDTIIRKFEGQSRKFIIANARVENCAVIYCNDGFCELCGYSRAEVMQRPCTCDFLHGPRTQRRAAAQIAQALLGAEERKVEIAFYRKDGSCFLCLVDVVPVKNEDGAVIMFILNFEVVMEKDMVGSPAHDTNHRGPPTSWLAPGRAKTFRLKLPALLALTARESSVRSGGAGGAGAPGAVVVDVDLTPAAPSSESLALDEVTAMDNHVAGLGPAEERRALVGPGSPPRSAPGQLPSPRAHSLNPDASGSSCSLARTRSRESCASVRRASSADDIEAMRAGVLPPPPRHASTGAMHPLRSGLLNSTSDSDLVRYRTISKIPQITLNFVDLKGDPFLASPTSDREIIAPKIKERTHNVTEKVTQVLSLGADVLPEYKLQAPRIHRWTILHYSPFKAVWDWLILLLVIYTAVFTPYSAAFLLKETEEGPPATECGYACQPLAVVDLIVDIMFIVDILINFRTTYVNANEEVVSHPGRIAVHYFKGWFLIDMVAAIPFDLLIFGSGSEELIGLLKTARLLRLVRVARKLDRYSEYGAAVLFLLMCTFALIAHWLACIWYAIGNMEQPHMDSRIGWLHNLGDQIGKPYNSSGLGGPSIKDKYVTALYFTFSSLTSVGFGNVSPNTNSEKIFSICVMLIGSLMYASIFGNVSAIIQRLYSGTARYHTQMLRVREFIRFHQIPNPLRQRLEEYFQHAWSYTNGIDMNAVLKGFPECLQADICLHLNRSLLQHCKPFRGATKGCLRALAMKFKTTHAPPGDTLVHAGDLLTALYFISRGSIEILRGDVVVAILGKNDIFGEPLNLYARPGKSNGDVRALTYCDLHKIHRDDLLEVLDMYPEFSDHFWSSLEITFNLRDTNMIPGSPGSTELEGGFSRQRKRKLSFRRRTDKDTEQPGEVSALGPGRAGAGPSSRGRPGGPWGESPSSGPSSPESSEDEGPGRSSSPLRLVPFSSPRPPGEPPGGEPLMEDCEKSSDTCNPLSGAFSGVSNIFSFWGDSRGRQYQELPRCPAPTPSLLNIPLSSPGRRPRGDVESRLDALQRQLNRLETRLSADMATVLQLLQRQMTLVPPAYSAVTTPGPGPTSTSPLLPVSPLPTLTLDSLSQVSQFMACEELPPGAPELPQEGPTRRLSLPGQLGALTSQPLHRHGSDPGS", "details": "literature; cited from earlier work"}, "KCa2/3 channels": {"tested_on": "KCa2/3 channels", "details": "literature; read-out: EC50s for activation of KCa2/3 channels; cited from earlier work"}, "[3]": {"tested_on": "voltage-gated sodium (NaV) channels", "details": "literature; cited from earlier work"}}}
{"smiles": "Nc1nc2c(ccc3ccccc32)s1", "note": "[SKA-31, naphtho[1,2-d]thiazol-2-ylamine]", "values": [{"measurement": "half-live", "setting": "[1]", "value": 12, "unit": "h"}, {"measurement": "reduction in blood pressure", "setting": "dogs", "value": "−30", "unit": "mmHg"}, {"measurement": "heart rate", "setting": "mice; 100 mg/kg", "value": "significant bradycardia"}, {"measurement": "duration of blood pressure lowering", "setting": "mice; 10-30 mg/kg", "value": "60 to 90", "unit": "min"}, {"measurement": "lowering of blood pressure", "setting": "mice; 10-30 mg/kg", "value": "~30", "unit": "mmHg"}]}
{"smiles": "Nc1nc2c(cc(Br)c3ccccc32)s1", "note": "[SKA-87, 5-Bromooaphtho[1,2-d]thiazol-2-amine]", "values": [{"measurement": "solubility", "setting": "[2]", "value": "too insoluble to be tested"}]}
{"smiles": "O=C1Nc2c(ccc(Cl)c2Cl)C1=NO", "note": "[NS309, 6,7-dichloro-1H-indole-2,3-dione 3 oxime]", "values": [{"measurement": "EC50", "setting": "KCa3.1", "value": "~20", "unit": "nM"}, {"measurement": "EC50", "setting": "KCa2 channels", "value": "~600", "unit": "nM"}, {"measurement": "concentration that inhibits KV11.1 (hERG)", "setting": "KV11.1 (hERG)", "value": 1, "unit": "µM"}]}
{"smiles": "Nc1nc2ccc(OC(F)(F)F)cc2s1", "note": "[Riluzole]", "values": [{"measurement": "EC50", "setting": "KCa2/3 channels", "value": "10 to 20", "unit": "µM"}, {"measurement": "concentrations that inhibit/affect NaV channels", "setting": "[3]", "value": "1 to 50", "unit": "µM"}]}
